Data on 24 compounds can be found in patent publication US20160326142A1, “PYRAZOLE CARBOXAMIDE COMPOUNDS, COMPOSITIONS AND METHODS OF USE” (Genentech, Inc., priority 2012, published 2016).

Usually pKi stands for the Ki on a negative log10 scale, so that one unit is a factor of ten.

pKi: −log10 of the molar value.

In this assay the target is T1, ITK (Homo sapiens, UniProt Q08881).
T1 construct: purchased Invitrogen PV3875
T1 sequence (Q08881 1-620): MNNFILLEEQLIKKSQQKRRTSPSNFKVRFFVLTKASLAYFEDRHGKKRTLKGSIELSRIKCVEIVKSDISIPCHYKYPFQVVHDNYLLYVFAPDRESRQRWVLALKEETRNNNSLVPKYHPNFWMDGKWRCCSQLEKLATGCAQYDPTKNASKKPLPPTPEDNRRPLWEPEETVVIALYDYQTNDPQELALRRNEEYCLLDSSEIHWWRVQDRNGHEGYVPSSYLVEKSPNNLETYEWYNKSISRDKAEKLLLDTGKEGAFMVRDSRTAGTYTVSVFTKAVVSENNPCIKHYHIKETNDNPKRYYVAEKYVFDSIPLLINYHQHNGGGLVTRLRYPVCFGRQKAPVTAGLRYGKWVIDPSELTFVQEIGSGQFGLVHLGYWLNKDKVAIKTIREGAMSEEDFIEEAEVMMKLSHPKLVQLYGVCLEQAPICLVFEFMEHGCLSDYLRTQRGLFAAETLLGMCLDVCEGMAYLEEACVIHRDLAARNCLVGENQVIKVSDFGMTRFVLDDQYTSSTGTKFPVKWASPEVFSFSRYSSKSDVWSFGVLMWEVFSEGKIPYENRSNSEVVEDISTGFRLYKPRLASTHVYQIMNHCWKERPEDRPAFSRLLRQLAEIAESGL
In words: ITK enzyme assay (Caliper or LCMS peptide phosphorylation). The class given is biochemical. The settings on record: purified ITK (Invitrogen PV3875), 20 μM ATP, Ki by Morrison's quadratic equation. The method, boiled down:
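Purified human ITK peptide phosphorylation, quenched with EDTA (50 mM final) for Caliper LabChip separation or TCA (5% v/v final) for UPLC-MS/MS MRM quantification. Ki derived via Morrison tight-binding equation, corrected for competitive inhibition using ATP concentration relative to Km,app.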
`CC1(C)CCc2c(C(=O)Nc3cnn(C(CCN4CC(F)(F)C4)c4ccccc4)c3)n[nH]c2C1` (single isomer, unassigned) [Example 121b, N-(1-(3-(3,3-difluoroazetidin-1-yl)-1-phenylpropyl)-1H-pyrazol-4-yl)-6,6-dimethyl-4,5,6,7-tetrahydro-1H-indazole-3-carboxamide] gave a pKi of 9.00.
Regarding `CN1CCC2(CCc3c(C(=O)Nc4cnn(Cc5ccccc5)c4)n[nH]c3C2)C1=O` (single isomer, unassigned) [Example 123a, N-(1-benzyl-1H-pyrazol-4-yl)-1′-methyl-2′-oxo-1,4,5,7-tetrahydrospiro[indazole-6,3′-pyrrolidine]-3-carboxamide], the pKi is 7.06.
Then `CC1(C)CCc2c(C(=O)Nc3cnn(C(c4cccc(S(C)(=O)=O)c4)C4CC4)c3)n[nH]c2C1` (single isomer, unassigned) [Example 125a, N-(1-(cyclopropyl(3-(methylsulfonyl)phenyl)methyl)-1H-pyrazol-4-yl)-6,6-dimethyl-4,5,6,7-tetrahydro-1H-indazole-3-carboxamide], with 8.70.
`CC1(C)CCc2c(C(=O)Nc3cnn(C(c4cccc(S(C)(=O)=O)c4)C4CC4)c3)n[nH]c2C1` (single isomer, unassigned) [Example 125b, N-(1-(cyclopropyl(3-(methylsulfonyl)phenyl)methyl)-1H-pyrazol-4-yl)-6,6-dimethyl-4,5,6,7-tetrahydro-1H-indazole-3-carboxamide]: the pKi is 8.00.
Then `CC1(C)CCc2c(C(=O)Nc3cnn(C(c4cccc(S(C)(=O)=O)c4)C4CCOC4)c3)n[nH]c2C1` (single isomer, unassigned) [Example 126a, 6,6-dimethyl-N-(1-((3-(methylsulfonyl)phenyl)(tetrahydrofuran-3-yl)methyl)-1H-pyrazol-4-yl)-4,5,6,7-tetrahydro-1H-indazole-3-carboxamide], with 8.70.
Then `CC1(C)CCc2c(C(=O)Nc3cnn(C(c4cccc(S(C)(=O)=O)c4)C4CCOC4)c3)n[nH]c2C1` (single isomer, unassigned) [Example 126b, 6,6-dimethyl-N-(1-((3-(methylsulfonyl)phenyl)(tetrahydrofuran-3-yl)methyl)-1H-pyrazol-4-yl)-4,5,6,7-tetrahydro-1H-indazole-3-carboxamide], with 10.00.
The figure for `CC1(C)CCc2c(C(=O)Nc3cnn(C(c4cccc(S(C)(=O)=O)c4)C4CCOC4)c3)n[nH]c2C1` (single isomer, unassigned) [Example 126c, 6,6-dimethyl-N-(1-((3-(methylsulfonyl)phenyl)(tetrahydrofuran-3-yl)methyl)-1H-pyrazol-4-yl)-4,5,6,7-tetrahydro-1H-indazole-3-carboxamide] is 8.40; for `CC1(C)CCc2c(C(=O)Nc3cnn(C(c4cccc(S(C)(=O)=O)c4)C4CCOC4)c3)n[nH]c2C1` (single isomer, unassigned) [Example 126d, 6,6-dimethyl-N-(1-((3-(methylsulfonyl)phenyl)(tetrahydrofuran-3-yl)methyl)-1H-pyrazol-4-yl)-4,5,6,7-tetrahydro-1H-indazole-3-carboxamide] it is 9.70.
As for `CC1(C)CCc2c(C(=O)Nc3cnn(C(c4ccccc4)C4CNCCS4(=O)=O)c3)n[nH]c2C1` (single isomer, unassigned) [Example 127a], the pKi was 9.70.
Then `CC1(C)CCc2c(C(=O)Nc3cnn(C(c4ccccc4)C4CNCCS4(=O)=O)c3)n[nH]c2C1` (single isomer, unassigned) [Example 127b], with 8.22; and `CN1CC(C(c2ccccc2)n2cc(NC(=O)c3n[nH]c4c3CCC(C)(C)C4)cn2)CN(C)C1=O` (single isomer, unassigned) [Example 129a, N-(1-((1,3-dimethyl-2-oxohexahydropyrimidin-5-yl)(phenyl)methyl)-1H-pyrazol-4-yl)-6,6-di methyl-4,5,6,7-tetrahydro-1H-indazole-3-carboxamide], with 9.15.
Then `CN1CC(C(c2ccccc2)n2cc(NC(=O)c3n[nH]c4c3CCC(C)(C)C4)cn2)CN(C)C1=O` (single isomer, unassigned) [Example 129b, N-(1-((1,3-dimethyl-2-oxohexahydropyrimidin-5-yl)(phenyl)methyl)-1H-pyrazol-4-yl)-6,6-di methyl-4,5,6,7-tetrahydro-1H-indazole-3-carboxamide], with 8.22.
Regarding `C#CC1(C)CCc2c(C(=O)Nc3cnn(Cc4ccccc4)c3)n[nH]c2C1` (single isomer, unassigned) [Example 130a, N-(1-benzyl-1H-pyrazol-4-yl)-6-ethynyl-6-methyl-4,5,6,7-tetrahydro-1H-indazole-3-carboxamide], the pKi is 7.60. This pKi lies 0.62 log units lower than the previous one.
As for `C#CC1(C)CCc2c(C(=O)Nc3cnn(Cc4ccccc4)c3)n[nH]c2C1` (single isomer, unassigned) [Example 130b, N-(1-benzyl-1H-pyrazol-4-yl)-6-ethynyl-6-methyl-4,5,6,7-tetrahydro-1H-indazole-3-carboxamide], the pKi was 8.70.
The figure for `CN1CCN(CC(c2ccccc2)n2cc(NC(=O)c3n[nH]c4c3CCC(C)(C)C4)cn2)C1=O` (single isomer, unassigned) [Example 131a, 6,6-dimethyl-N-(1-(2-(3-methyl-2-oxoimidazolidin-1-yl)-1-phenylethyl)-1H-pyrazol-4-yl)-4,5,6,7-tetrahydro-1H-indazole-3-carboxamide] is 9.00; for `CN1CCN(CC(c2ccccc2)n2cc(NC(=O)c3n[nH]c4c3CCC(C)(C)C4)cn2)C1=O` (single isomer, unassigned) [Example 131b, 6,6-dimethyl-N-(1-(2-(3-methyl-2-oxoimidazolidin-1-yl)-1-phenylethyl)-1H-pyrazol-4-yl)-4,5,6,7-tetrahydro-1H-indazole-3-carboxamide] it is 7.96; for `CC1(C)CCc2c(C(=O)Nc3cnn(C4COCC4c4ccccc4)c3)n[nH]c2C1` (single isomer, unassigned) [Example 132a, 6,6-dimethyl-N-(1-(4-phenyltetrahydrofuran-3-yl)-1H-pyrazol-4-yl)-4,5,6,7-tetrahydro-1H-indazole-3-carboxamide] it is 7.11.
Compound `CC1(C)CCc2c(C(=O)Nc3cnn(C4COCC4c4ccccc4)c3)n[nH]c2C1` (single isomer, unassigned) [Example 132b, 6,6-dimethyl-N-(1-(4-phenyltetrahydrofuran-3-yl)-1H-pyrazol-4-yl)-4,5,6,7-tetrahydro-1H-indazole-3-carboxamide] showed a pKi of 8.00.
`CC1(C)CCc2c(C(=O)Nc3cnn(C(c4ccnc(N)c4)C4CCOCC4)c3)n[nH]c2C1` (single isomer, unassigned) [Example 133a, N-(1-((2-aminopyridin-4-yl)(tetrahydro-2H-pyran-4-yl)methyl)-1H-pyrazol-4-yl)-6,6-dimethyl-4,5,6,7-tetrahydro-1H-indazole-3-carboxamide]: the pKi was 9.40.
The compound `CC1(C)CCc2c(C(=O)Nc3cnn(C(c4ccnc(N)c4)C4CCOCC4)c3)n[nH]c2C1` (single isomer, unassigned) [Example 133b, N-(1-((2-aminopyridin-4-yl)(tetrahydro-2H-pyran-4-yl)methyl)-1H-pyrazol-4-yl)-6,6-dimethyl-4,5,6,7-tetrahydro-1H-indazole-3-carboxamide] gave a pKi of 8.70. Compared with the last compound, the pKi is 0.70 log units lower.
Then `CC1(C)CCc2c(C(=O)Nc3cnn([C@@H]4COC[C@H]4c4ccccc4)c3)n[nH]c2C1` (single isomer, unassigned) [Example 135a, 6,6-dimethyl-N-(1-(4-phenyltetrahydrofuran-3-yl)-1H-pyrazol-4-yl)-4,5,6,7-tetrahydro-1H-indazole-3-carboxamide], with 6.89; and `CC1(C)CCc2c(C(=O)Nc3cnn([C@@H]4COC[C@H]4c4ccccc4)c3)n[nH]c2C1` (single isomer, unassigned) [Example 135b, 6,6-dimethyl-N-(1-(4-phenyltetrahydrofuran-3-yl)-1H-pyrazol-4-yl)-4,5,6,7-tetrahydro-1H-indazole-3-carboxamide], with 7.85.
The figure for `CC1CC(C(c2ccccc2)n2cc(NC(=O)c3n[nH]c4c3CCC(C)(C)C4)cn2)CCS1(=O)=O` (single isomer, unassigned) [Example 139a, 6,6-dimethyl-N-(1-((2-methyl-1,1-dioxidotetrahydro-2H-thiopyran-4-yl)(phenyl)methyl)-1H-pyrazol-4-yl)-4,5,6,7-tetrahydro-1H-indazole-3-carboxamide] is 9.00.
The figure for `CC1CC(C(c2ccccc2)n2cc(NC(=O)c3n[nH]c4c3CCC(C)(C)C4)cn2)CCS1(=O)=O` (single isomer, unassigned) [Example 139b, 6,6-dimethyl-N-(1-((2-methyl-1,1-dioxidotetrahydro-2H-thiopyran-4-yl)(phenyl)methyl)-1H-pyrazol-4-yl)-4,5,6,7-tetrahydro-1H-indazole-3-carboxamide] is 9.15.
